Like-named read-outs stand apart in the source and are kept apart here. One block for each molecule: values may come before it.
Assays:
[1] = target: T1, STAT5a (Homo sapiens, UniProt P42229); experiment: Fluorescence polarization competitive binding assay, STAT5a; conditions: for inhibition at 100 µM: read-out: Inhibition of STAT5a at 100 µM
T1 construct: made in house
T1 sequence (P42229 1-794): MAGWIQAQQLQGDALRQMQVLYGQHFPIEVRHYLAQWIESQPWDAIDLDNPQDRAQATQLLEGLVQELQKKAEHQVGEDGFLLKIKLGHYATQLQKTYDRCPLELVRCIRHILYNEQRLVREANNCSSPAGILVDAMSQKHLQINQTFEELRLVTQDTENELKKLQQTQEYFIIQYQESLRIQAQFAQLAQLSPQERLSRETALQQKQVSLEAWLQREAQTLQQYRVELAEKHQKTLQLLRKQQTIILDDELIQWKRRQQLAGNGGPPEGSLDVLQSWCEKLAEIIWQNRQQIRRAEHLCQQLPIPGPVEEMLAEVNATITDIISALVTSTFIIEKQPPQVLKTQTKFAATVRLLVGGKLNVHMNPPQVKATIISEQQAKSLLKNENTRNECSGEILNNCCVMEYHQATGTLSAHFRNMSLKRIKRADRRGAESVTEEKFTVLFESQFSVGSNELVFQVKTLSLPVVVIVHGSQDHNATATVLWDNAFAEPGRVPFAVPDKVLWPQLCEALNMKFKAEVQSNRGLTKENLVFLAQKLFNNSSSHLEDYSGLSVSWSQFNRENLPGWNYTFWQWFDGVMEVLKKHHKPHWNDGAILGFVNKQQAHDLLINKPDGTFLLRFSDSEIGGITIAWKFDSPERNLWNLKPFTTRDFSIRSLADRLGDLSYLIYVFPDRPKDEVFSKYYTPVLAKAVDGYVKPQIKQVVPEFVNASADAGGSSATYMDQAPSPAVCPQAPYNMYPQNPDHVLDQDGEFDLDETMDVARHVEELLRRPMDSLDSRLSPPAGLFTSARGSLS

[2] = target: T2, STAT5b (Homo sapiens, UniProt P51692); experiment: Fluorescence polarization competitive binding assay, STAT5b; conditions: for inhibition at 100 µM: read-out: Inhibition of STAT5b at 100 µM; for inhibition at 200 µM: read-out: STAT5b inhibition at 200 μM
T2 construct: made in house
T2 sequence (P51692 1-787): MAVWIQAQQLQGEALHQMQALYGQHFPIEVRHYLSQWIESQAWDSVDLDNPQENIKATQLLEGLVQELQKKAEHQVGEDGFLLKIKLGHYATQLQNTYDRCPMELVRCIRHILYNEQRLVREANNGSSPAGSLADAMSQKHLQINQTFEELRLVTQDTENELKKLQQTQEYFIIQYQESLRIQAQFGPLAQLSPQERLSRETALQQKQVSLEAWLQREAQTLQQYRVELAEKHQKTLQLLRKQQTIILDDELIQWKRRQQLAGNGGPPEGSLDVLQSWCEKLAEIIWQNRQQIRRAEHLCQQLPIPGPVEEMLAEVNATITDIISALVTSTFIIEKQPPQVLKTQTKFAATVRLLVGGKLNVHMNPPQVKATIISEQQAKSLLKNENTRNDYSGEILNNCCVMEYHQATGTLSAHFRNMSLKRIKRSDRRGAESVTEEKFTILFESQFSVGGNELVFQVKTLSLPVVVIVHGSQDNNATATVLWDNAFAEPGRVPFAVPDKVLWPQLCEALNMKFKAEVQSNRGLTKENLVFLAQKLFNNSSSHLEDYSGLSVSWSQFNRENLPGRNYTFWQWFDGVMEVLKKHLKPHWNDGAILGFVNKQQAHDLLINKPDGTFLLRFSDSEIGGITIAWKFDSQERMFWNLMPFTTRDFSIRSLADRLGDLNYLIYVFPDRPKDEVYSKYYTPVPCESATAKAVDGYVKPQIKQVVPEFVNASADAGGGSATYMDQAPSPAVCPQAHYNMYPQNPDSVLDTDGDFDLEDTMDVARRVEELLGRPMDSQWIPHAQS

[3] = target: STAT3 (Homo sapiens, UniProt P40763); experiment: Fluorescence polarization competitive binding assay, STAT3 SH2 domain; conditions: for inhibition at 100 µM: read-out: Inhibition of STAT3 at 100 µM; for inhibition at 200 µM: read-out: STAT3 inhibition at 200 μM
Chain of STAT3 (P40763 whole entry, species assumed, the tested form may be a part): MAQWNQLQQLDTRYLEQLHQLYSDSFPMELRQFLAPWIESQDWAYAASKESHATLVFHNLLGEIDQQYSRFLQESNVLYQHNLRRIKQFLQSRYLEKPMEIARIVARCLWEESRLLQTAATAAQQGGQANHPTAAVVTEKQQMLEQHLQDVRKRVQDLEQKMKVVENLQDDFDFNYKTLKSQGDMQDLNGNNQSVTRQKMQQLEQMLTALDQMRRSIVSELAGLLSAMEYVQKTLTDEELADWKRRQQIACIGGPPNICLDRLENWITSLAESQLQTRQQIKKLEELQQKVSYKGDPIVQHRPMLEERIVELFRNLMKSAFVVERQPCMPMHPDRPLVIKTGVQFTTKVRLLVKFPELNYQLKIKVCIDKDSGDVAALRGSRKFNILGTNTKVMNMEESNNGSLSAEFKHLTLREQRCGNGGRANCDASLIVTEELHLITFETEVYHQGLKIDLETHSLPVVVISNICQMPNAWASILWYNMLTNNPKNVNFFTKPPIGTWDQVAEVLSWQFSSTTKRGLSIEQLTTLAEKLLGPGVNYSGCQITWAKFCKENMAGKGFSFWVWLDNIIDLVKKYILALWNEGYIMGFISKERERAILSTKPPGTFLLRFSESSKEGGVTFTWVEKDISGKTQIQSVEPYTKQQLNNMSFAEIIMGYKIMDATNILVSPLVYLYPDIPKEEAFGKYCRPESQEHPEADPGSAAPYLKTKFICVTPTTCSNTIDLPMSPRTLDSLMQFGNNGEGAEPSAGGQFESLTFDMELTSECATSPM
From the text: Expression and purification of STAT1, STAT3, STAT4, STAT5a, STAT5b, STAT5a Trp566Arg, STAT5b Arg566Trp, STAT5b 6M, STAT5b 7M, STAT6, and Lck have previously been described.[4, 12] STAT proteins were purified over a single His-Bind resin (Millipore) column.
Wild-type and mutant STAT5a/b proteins used for activity analysis of 20 were purified over two successive His-Bind resin columns.[4, 13]
Fluorescence Polarization assays
Competitive binding assays based on fluorescence polarization were essentially carried out as described.[14] Unless stated otherwise, the following final concentration of proteins were used:
STAT4; 105 nM for STAT6; 30 nM for Lck. Final concentration of all peptides: 10 nM. Peptides used: 5-carboxyfluorescein-GpYLVLDKW for STAT5a/b and point mutants thereof; 5-carboxyfluorescein-GpYLPQTV-NH2 for STAT3; 5-carboxyfluorescein-GpYDKPHVL for STAT1; 5-carboxyfluorescein-GpYLPQNID-OH for STAT4; 5-carboxyfluorescein-
analysis of 20 against wild-type (wt) STAT5a/b and STAT5a/b point mutants, the following concentrations of double-purified protein were used, which reflect the approximate Kd values of the interactions with 5-carboxyfluorescein-GpYLVLDKW: STAT5a wt: 147 nM; STAT5b wt:
STAT5b 6M: 80 nM; STAT5b 7M: 282 nM. Assay buffer: 10 mM Tris (pH 8.0), 50 mM NaCl, 1 mM EDTA, 1 mM DTT, 0.1 % Nonidet P-40 substitute, and 2 % DMSO in water. A major part of the pipetting was done using a Biomek FXp sceening robot (Beckman-Coulter). Protein and test compounds were incubated for 1 h, followed by addition of the fluorescein-labeled peptide.
Fluorescence polarization was measured after another hour using an Infinite F500 plate reader (Tecan). IC50 values were converted to Ki-values using the published equation.[15]

[4] = test system: endogenous STAT5a/b; experiment: Phosphorylation of endogenous STAT5a/b in K562 cells (Western blot)
Method: In these cells, both STAT5a and STAT5b are constitutively phosphorylated on Tyr694 (STAT5a) and Tyr699 (STAT5b), respectively, by Bcr‐Abl. Since phosphorylation is dependent on the function of the SH2 domain, a STAT5 SH2 domain inhibitor will reduce the ability of STAT5 to be tyrosine phosphorylated by Bcr‐Abl (Figure 5 B).
Chronic myeloid leukemia K562 cells were obtained from DSMZ (Braunschweig, Germany).
K562 cells were cultured in RPMI 1640 medium (Gibco Life Technologies), supplemented by 10 % (v/v) FBS (Gibco Life Technologies), 2 mM L-glutamine (Gibco Life Technologies) and 1 % (v/v) penicillin/streptomycin (Gibco Life Technologies), at 37 °C, 5 % CO2 and 95 %
In brief, cells were transfected with plasmid encoding either human wild-type STAT5a-GFP or STAT5b-GFP. K562 cells (6 x 10^5 cells per well) were seeded into 24-well plate (Corning) and were transfected using Fugene HD Transfection Reagent (Promega) with a 4:1 ratio of Fugene:DNA. […] After harvesting, cells were centrifuged at 3.000 rpm at 4 °C for 5 min. […] Primary antibodies (phospho-STAT5, STAT5, β-Actin; 1:1000, Cell Signaling) were detected using α-rabbit-HRP secondary antibody (1:3000, Dako) and ECL (Western Lightning Plus chemiluminescence reagent, Perkin-Elmer).
(§1) Visualization was carried out using an ImageQuant digital imaging system (GE Healthcare) and ImageJ software (NIH) was used for quantitative analysis.[17]

[5] = target: T3, STAT5a‐GFP fusion protein (Homo sapiens, UniProt P42229); conditions: K562 cells, 4 h treatment
T3 sequence (P42229 1-794): T1 sequence (P42229 1-794)
Method: (§2) 27 was tested for its ability to prevent phosphorylation of STAT5a in K562 cells, a human chronic myelogenous leukemia cell line. In these cells, both STAT5a and STAT5b are constitutively phosphorylated on Tyr694 (STAT5a) and Tyr699 (STAT5b), respectively, by Bcr‐Abl. Since phosphorylation is dependent on the function of the SH2 domain, a STAT5 SH2 domain inhibitor will reduce the ability of STAT5 to be tyrosine phosphorylated by Bcr‐Abl (Figure 5 B).
(§3) C) Effect of 27 on phosphorylation of STAT5a in STAT5a‐GFP‐transfected K562 cells, and D) on phosphorylation of STAT5b in STAT5b‐GFP‐transfected K562 cells. E, F) Quantitation of the data shown in C) (n=4), and D) (n=3), respectively. Phospho‐STAT5a/b‐GFP levels are normalized against total STAT5a/b‐GFP. All error bars represent standard deviations (s.d.).
(§4) Chronic myeloid leukemia K562 cells were obtained from DSMZ (Braunschweig, Germany). […]
(§5) Transfection of cultured K562 cells and Western blotting was performed as previously described.[14, 16] […] Primary antibodies (phospho-STAT5, STAT5, β-Actin; 1:1000, Cell Signaling) were detected using α-rabbit-HRP secondary antibody (1:3000, Dako) and ECL (Western Lightning Plus chemiluminescence reagent, Perkin-Elmer).
as §1

[6] = target: T4, STAT5b‐GFP construct (Homo sapiens, UniProt P51692); conditions: K562 cells, 4 h treatment
T4 sequence (P51692 1-787): T2 sequence (P51692 1-787)
Method: as §2, §3, §4, §5, §1

[7] = FP assay, IC50 converted to Ki, read-out: STAT5a K i

SMILES: O=C(Nc1cccc(OP(=O)(O)O)c1)c1cccc(S(=O)(=O)N2CCCC2)c1 [Compound 7]
inhibition at 100 µM [1]: 26 ± 17% | inhibition at 100 µM [2]: 4 ± 9% | inhibition at 100 µM [3]: 3 ± 2%

SMILES: O=P(O)(O)Oc1cc(-c2ccccc2)cc(-c2ccccc2)c1 [Compound 11]
IC50 [1]: 47.9 ± 4.3 µM | Ki [1]: 23.7 ± 2.1 µM | IC50 [2]: 95 ± 3 µM | Ki [2]: 48.4 ± 2 µM | inhibition at 200 µM [3]: 48 ± 1%

SMILES: O=C(C=Cc1c(F)c(F)c(F)c(F)c1F)c1cccc(OP(=O)(O)O)c1 [Compound 2]
inhibition at 100 µM [1]: 51 ± 4% | inhibition at 100 µM [2]: 37 ± 2% | inhibition at 100 µM [3]: 43 ± 2%

SMILES: O=P(O)(O)Oc1cc(-c2ccc3c(c2)OCO3)cc(-c2ccc3c(c2)OCO3)c1 [Compound 18]
IC50 [1]: 28.4 ± 4.4 µM | Ki [1]: 14 ± 2.1 µM | IC50 [2]: 56.4 ± 1 µM | Ki [2]: 28 ± 0.5 µM | IC50 [3]: 129 ± 5 µM | Ki [3]: 63.8 ± 2.3 µM

SMILES: CN(C1CCCCC1)S(=O)(=O)c1cccc(C(=O)N2CCN(c3ccc(OP(=O)(O)O)cc3)CC2)c1 [Compound 9]
inhibition at 100 µM [1]: 41 ± 8% | inhibition at 100 µM [2]: 23 ± 8% | inhibition at 100 µM [3]: 33 ± 5%

SMILES: COc1ccc(-c2cc(OP(=O)(O)O)cc(-c3ccc(OC)c(OC)c3)c2)cc1OC [Compound 15]
IC50 [1]: 33.4 ± 5.2 µM | Ki [1]: 16.5 ± 2.5 µM | inhibition at 200 µM [2]: 44 ± 3% | inhibition at 200 µM [3]: 43 ± 2%

Ki [1, 7]: 28 ± 3 µM
SMILES: COc1cc(-c2cc(-c3cc(OC)c(OC)c(OC)c3)cc(C(F)P(=O)(O)O)c2)cc(OC)c1OC (centres unmarked) [Compound 26]
selectivity over STAT5b and other STAT proteins ([1]; FP assays): retained selectivity over STAT5b and other STAT proteins

Ki [1, 7]: 75 ± 13 µM
SMILES: COc1cc(-c2cc(CP(=O)(O)O)cc(-c3cc(OC)c(OC)c(OC)c3)c2)cc(OC)c1OC [Compound 24]

SMILES: COc1ccc(-c2cc(OP(=O)(O)O)cc(-c3ccc(Cl)cc3)c2)cc1 [Compound 1]
IC50 [1]: 39.9 ± 1.9 µM | Ki [1]: 19.7 ± 0.9 µM | inhibition at 100 µM [1]: 73 ± 5% | IC50 [2]: 49.4 ± 3.3 µM | Ki [2]: 24.5 ± 1.6 µM | inhibition at 100 µM [2]: 73 ± 3% | IC50 [3]: 120 ± 10 µM | Ki [3]: 59.2 ± 5 µM | inhibition at 100 µM [3]: 43 ± 5%

SMILES: O=P(O)(O)Oc1cc(-c2ccc3c(c2)OCCO3)cc(-c2ccc3c(c2)OCCO3)c1 [Compound 19]
IC50 [1]: 22.5 ± 3.8 µM | Ki [1]: 11.1 ± 1.9 µM | IC50 [2]: 71.2 ± 5.7 µM | Ki [2]: 35.4 ± 2.8 µM | IC50 [3]: 104 ± 4 µM | Ki [3]: 51.2 ± 2 µM

STAT5a inhibition at 200 μM ([1]; FP assay, 200 µM): no inhibition | STAT5b inhibition at 200 μM ([2]; FP assay, 200 μM (highest concentration tested)): no inhibition | STAT3 inhibition at 200 μM ([3]; FP assay, 200 µM): no inhibition
SMILES: COc1ccc(-c2cc(O)cc(-c3ccc(OC)cc3)c2)cc1 [Compound 12 a]

SMILES: COc1cccc(-c2cc(OP(=O)(O)O)cc(-c3cccc(OC)c3)c2)c1 [Compound 13]
IC50 [1]: 32.3 ± 5.7 µM | Ki [1]: 16 ± 2.8 µM | IC50 [2]: 86.7 ± 3.1 µM | Ki [2]: 43.1 ± 1.5 µM | inhibition at 200 µM [3]: 51 ± 2%

phosphorylation of STAT5a Tyr694 in the STAT5a-GFP fusion protein [5]: inhibited in a dose‐dependent manner | phosphorylation of Tyr699 in the STAT5b-GFP construct [6]: only minimally affected
SMILES: COc1cc(-c2cc(-c3cc(OC)c(OC)c(OC)c3)cc(C(F)P(=O)(OCOC(=O)C(C)(C)C)OCOC(=O)C(C)(C)C)c2)cc(OC)c1OC (centres unmarked) [Compound 27]
phosphorylation of endogenous STAT5a/b [4]: reduced to a substantially lower degree than that of STAT5a‐GFP

SMILES: O=C(c1ccc([N+](=O)[O-])cc1)c1coc2ccc(OP(=O)(O)O)cc12 [Compound 5]
inhibition at 100 µM [1]: 87 ± 2% | inhibition at 100 µM [2]: 88 ± 1% | inhibition at 100 µM [3]: 26 ± 8%

SMILES: O=C(Cn1ccc2ccccc21)Nc1cccc(OP(=O)(O)O)c1 [Compound 6]
inhibition at 100 µM [1]: 46 ± 6% | inhibition at 100 µM [2]: 24 ± 14% | inhibition at 100 µM [3]: 11 ± 6%

SMILES: COc1cc(OC)cc(-c2cc(OP(=O)(O)O)cc(-c3cc(OC)cc(OC)c3)c2)c1 [Compound 17]
IC50 [1]: 34.7 ± 4.5 µM | Ki [1]: 17.1 ± 2.2 µM | IC50 [2]: 73.4 ± 5 µM | Ki [2]: 36.5 ± 2.5 µM | inhibition at 200 µM [3]: 50 ± 3%

SMILES: COc1cccc(-c2cc(OP(=O)(O)O)cc(-c3cccc(OC)c3OC)c2)c1OC [Compound 16]
IC50 [1]: 45.1 ± 9.8 µM | Ki [1]: 22.3 ± 4.8 µM | inhibition at 200 µM [2]: 40 ± 2% | inhibition at 200 µM [3]: 15 ± 2%

SMILES: COc1ccc(-c2cc(OP(=O)(O)O)cc(-c3ccc(OC)cc3)c2)cc1 [Compound 12]
IC50 [1]: 27.9 ± 1.7 µM | Ki [1]: 13.8 ± 0.8 µM | IC50 [2]: 77.5 ± 0.4 µM | Ki [2]: 38.5 ± 0.2 µM | IC50 [3]: 156 ± 12 µM | Ki [3]: 77.1 ± 5.8 µM

SMILES: O=C(CCNS(=O)(=O)c1ccc(C2CCCCC2)cc1)N1CCN(c2ccc(OP(=O)([O-])[O-])cc2)CC1.[Na+].[Na+] [Compound 8]
Inhibition of STAT5a at 100 µM ([1]; FP assay, 100 µM): 65±5% | Inhibition of STAT5b at 100 µM ([2]; FP assay, 100 µM): 63±1% | Inhibition of STAT3 at 100 µM ([3]; FP assay, 100 µM): 33±2%

SMILES: COc1ccccc1-c1cc(OP(=O)(O)O)cc(-c2ccccc2OC)c1 [Compound 14]
IC50 [1]: 88.7 ± 6.1 µM | Ki [1]: 43.9 ± 3 µM | IC50 [2]: 158 ± 1 µM | Ki [2]: 78.6 ± 0.4 µM | inhibition at 200 µM [3]: 28 ± 1%

Ki [1, 7]: 52 ± 3 µM
SMILES: COc1cc(-c2cc(-c3cc(OC)c(OC)c(OC)c3)cc(C(F)(F)P(=O)(O)O)c2)cc(OC)c1OC [Compound 25]

SMILES: O=P(O)(O)Oc1cc(-c2cc(F)c(F)c(F)c2)cc(-c2cc(F)c(F)c(F)c2)c1 [Compound 22]
IC50 [1]: 21.9 ± 2.1 µM | Ki [1]: 10.8 ± 1.1 µM | IC50 [2]: 46.9 ± 0.9 µM | Ki [2]: 23.3 ± 0.4 µM | IC50 [3]: 102 ± 9 µM | Ki [3]: 50.4 ± 4.2 µM

SMILES: O=P(O)(O)Oc1cc(-c2ccc(Cl)cc2)cc(-c2ccc(Cl)cc2)c1 [Compound 10]
IC50 [1]: 42.2 ± 3.3 µM | Ki [1]: 20.9 ± 1.6 µM | IC50 [2]: 37.7 ± 0.05 µM | Ki [2]: 18.7 ± 0.02 µM | IC50 [3]: 38.4 ± 1.7 µM | Ki [3]: 18.9 ± 0.9 µM

SMILES: O=C(C=Cc1ccccc1C(F)(F)F)c1cccc(OP(=O)(O)O)c1 [Compound 3]
inhibition at 100 µM [1]: 37 ± 9% | inhibition at 100 µM [2]: 31 ± 3% | inhibition at 100 µM [3]: 53 ± 3%

SMILES: CC(=O)Nc1ccc(C=CC(=O)c2cccc(OP(=O)(O)O)c2)cc1 [Compound 4]
inhibition at 100 µM [1]: 57 ± 2% | inhibition at 100 µM [2]: 52 ± 4% | inhibition at 100 µM [3]: 29 ± 7%

SMILES: COc1cc(-c2cccc(OP(=O)(O)O)c2)cc(OC)c1OC [Compound 23]
IC50 [1]: 106 ± 4 µM | Ki [1]: 53 ± 2.1 µM | drop in activity against STAT5a on deletion of one phenyl ring of 20 ([1]; compared with 20): 5 fold | inhibition at 200 µM [2]: 39 ± 1% | inhibition at 200 µM [3]: 40 ± 1%

SMILES: COc1ccc(-c2cc(OP(=O)(O)O)cc(-c3ccc(OC)c(OC)c3OC)c2)c(OC)c1OC [Compound 21]
IC50 [1]: 111 ± 10 µM | Ki [1]: 55.2 ± 4.9 µM | inhibition at 200 µM [2]: 28 ± 2% | inhibition at 200 µM [3]: 15 ± 3%
